Results from patent US20090318449A1, “THERAPEUTIC LACTAMS” (ALLERGAN, INC., priority 2008, published 2009).

Test system: lashes and adjacent hairs of glaucoma patients
Test: Eyelash/hair growth observed in glaucoma patients treated in one eye
Format: in vivo, humans
Conditions: glaucoma patients treated in only one eye
Excerpt: In the course of treating patients having glaucoma, treatment may only be appropriate in one eye. […] The lash appearance on the lids of the treated eyes would have appeared quite attractive if it represented a bilateral phenomenon. As a result of its asymmetric nature, the long lashes on one side could be construed as disturbing from a cosmetic standpoint. A systemic examination was preformed as a result of the asymmetric phenomenon. It soon became apparent that this altered appearance was not an isolated finding. […] Definite differences could be identified to varying degrees in the lashes and adjacent hairs of all patients who were taking the drug on a unilateral basis for longer than 6 months.
The changes in the lashes were apparent on gross inspection in several patients once attention was focused on the issue. In those with light colored hair and lashes, the differences were only seen easily with the aid of the high magnification and lighting capabilities of the slit lamp biomicroscope. In the course of glaucoma follow-up examination, attention is generally immediately focused on the eye itself. As a result of the high power magnification needed only one eye is seen at a time and the eye is seen at a high enough power that the lashes are not in focus. […]

Compound: CCNC(=O)CCC/C=C\C[C@@H]1[C@@H](/C=C/[C@@H](O)CCc2ccccc2)[C@H](O)C[C@@H]1O [bimatoprost]
- lash appearance, treated eye versus non-treated eye: longer, thicker, and fuller
